Source: US8324226B2, “Therapeutic oxy-phenyl-aryl compounds and their use” (Cancer Research Technology Limited, priority 2007, dated 2012)
“And” between values parts separate entries of the source, which are not always exact repeats. Equal values may be shown once. Read-outs that look alike come from different tables or passages of the source.

Target: T1, CHK2 (Homo sapiens, UniProt O96017)
T1 construct: made in house
Assay: CHK2 kinase activity assay (DELFIA, phosphorylation of a CDC25C peptide)
Assay type: biochemical
Conditions: ATP 30 μM, CHK2 1 nM, read-out: IC50, inhibition of CHK2 kinase activity in vitro

T1 sequence (O96017 whole entry): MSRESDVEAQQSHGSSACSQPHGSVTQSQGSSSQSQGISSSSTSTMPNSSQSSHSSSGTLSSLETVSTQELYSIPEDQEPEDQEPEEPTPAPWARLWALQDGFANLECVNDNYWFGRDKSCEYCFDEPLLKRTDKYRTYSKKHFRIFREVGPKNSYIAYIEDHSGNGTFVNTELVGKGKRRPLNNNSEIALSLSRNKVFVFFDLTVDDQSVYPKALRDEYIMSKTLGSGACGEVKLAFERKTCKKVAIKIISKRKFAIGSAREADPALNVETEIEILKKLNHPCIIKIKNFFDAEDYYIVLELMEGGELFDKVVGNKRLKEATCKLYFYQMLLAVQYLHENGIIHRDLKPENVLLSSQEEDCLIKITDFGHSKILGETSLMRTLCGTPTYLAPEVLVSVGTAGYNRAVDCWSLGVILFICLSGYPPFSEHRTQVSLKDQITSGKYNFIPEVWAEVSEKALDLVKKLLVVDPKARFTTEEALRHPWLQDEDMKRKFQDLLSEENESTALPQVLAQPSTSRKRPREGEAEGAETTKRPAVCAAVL

Structure (SMILES)	IC50 (first set of tested compounds) [µM]	IC50 (following further studies)
CC(C)N(C)C(=O)[C@H]1C[C@H](Nc2nc(-c3ccccc3O)nc3ccccc23)CN1 [Compound A-048, (2R,4S)-4-(2-(2-Hydroxyphenyl)quinazolin-4-ylamino)-N-isopropyl-N-methylpyrrolidine-2-carboxamide]	< 3	≤ 0.3 µM
O=C([C@H]1C[C@H](Nc2nc(-c3ccccc3O)nc3ccccc23)CN1)N1CCC1 [Compound A-049, Azetidin-1-yl((2R,4S)-4-(2-(2-hydroxyphenyl)quinazolin-4-ylamino)pyrrolidin-2-yl)methanone]	< 3	0.3 to 3 µM
CCN(C)C(=O)[C@H]1C[C@H](Nc2nc(-c3ccccc3O)nc3ccccc23)CN1 [Compound A-050, (2R,4S)-N-Ethyl-4-(2-(2-hydroxyphenyl)quinazolin-4-ylamino)-N-methylpyrrolidine-2-carboxamide]	< 3	≤ 0.3 µM
CCNC(=O)[C@H]1C[C@H](Nc2nc(-c3ccccc3O)nc3ccccc23)CN1 [Compound A-051, (2R,4S)-N-Ethyl-4-(2-(2-hydroxyphenyl)quinazolin-4-ylamino)pyrrolidine-2-carboxamide]	< 3	0.3 to 3 µM
OCC#Cc1ccc2nc(-c3ccccc3O)nc(N[C@H]3CCNC3)c2c1 [Compound A-052, (S)-2-(6-(3-hydroxyprop-1-ynyl)-4-(pyrrolidin-3-ylamino)quinazolin-2-yl)phenol]	< 3	≤ 0.3 µM
OCC#Cc1ccc2c(N[C@H]3CCNC3)nc(-c3ccccc3O)nc2c1 [Compound A-054, (S)-2-(7-(3-Hydroxyprop-1-ynyl)-4-(pyrrolidin-3-ylamino)quinazolin-2-yl)phenol]	< 3	≤ 0.3 µM
Oc1ccc(Cl)cc1-c1nc(NC2CCCNCC2)c2ccccc2n1 (centres unmarked) [Compound A-057, 2-(4-(Azepan-4-ylamino)quinazolin-2-yl)-4-chlorophenol]	–	≤ 0.3 µM
Oc1ccc(Cl)cc1-c1nc(NC2CCCCNC2)c2ccccc2n1 (centres unmarked) [Compound A-058, 2-(4-(Azepan-3-ylamino)quinazolin-2-yl)-4-chlorophenol]	–	≤ 0.3 µM
Oc1ccc(F)cc1-c1nc(NC2CCCCNC2)c2ccccc2n1 (centres unmarked) [Compound A-059, 2-(4-(Azepan-3-ylamino)quinazolin-2-yl)-4-fluorophenol]	–	≤ 0.3 µM
Oc1ccc(F)cc1-c1nc(NC2CCCNCC2)c2ccccc2n1 (centres unmarked) [Compound A-060, 2-(4-(Azepan-4-ylamino)quinazolin-2-yl)-4-fluorophenol]	–	≤ 0.3 µM
CN(C)C(=O)[C@H]1C[C@H](Nc2nc(-c3cc(F)ccc3O)nc3cc(CCCO)ccc23)CN1 [Compound A-061, (2R,4S)-4-(2-(5-Fluoro-2-hydroxyphenyl)-7-(3-hydroxypropyl)quinazolin-4-ylamino)-N,N-dimethylpyrrolidine-2-carboxamide]	–	≤ 0.3 µM
Oc1ccccc1-c1nc(N[C@H]2CCNC2)c2ccc(Cl)cc2n1 [Compound A-062, (S)-2-(7-Chloro-4-(pyrrolidin-3-ylamino)quinazolin-2-yl)phenol]	–	≤ 0.3 µM
O=C(O)C1(Nc2nc(-c3cc(Cl)ccc3O)nc3ccccc23)CCNC1 (centres unmarked) [Compound A-064, 3-(2-(5-Chloro-2-hydroxyphenyl)quinazolin-4-ylamino)pyrrolidine-3-carboxylic acid]	–	3 to 30 µM
Oc1ccccc1-c1nc(N[C@H]2CCNC2)c2ccc(-c3cn[nH]c3)cc2n1 [Compound A-065, (S)-2-(7-(1H-Pyrazol-4-yl)-4-(pyrrolidin-3-ylamino)quinazolin-2-yl)phenol]	–	≤ 0.3 µM
Cn1cc(-c2ccc3c(N[C@H]4CCNC4)nc(-c4ccccc4O)nc3c2)cn1 [Compound A-066, (S)-2-(7-(1-Methyl-1H-pyrazol-4-yl)-4-(pyrrolidin-3-ylamino)quinazolin-2-yl)phenol]	–	≤ 0.3 µM
Oc1ccc(F)cc1-c1nc(N[C@H]2CCNC2)c2ccc(-c3cn[nH]c3)cc2n1 [Compound A-068, (S)-2-(7-(1H-Pyrazol-4-yl)-4-(pyrrolidin-3-ylamino)quinazolin-2-yl)-4-fluorophenol]	–	≤ 0.3 µM
OCCCc1ccc2c(N[C@H]3CCNC3)nc(-c3cc(F)ccc3O)nc2c1 [Compound A-071, (S)-4-Fluoro-2-(7-(3-hydroxypropyl)-4-(pyrrolidin-3-ylamino)quinazolin-2-yl)phenol]	–	≤ 0.3 µM
OCC#Cc1ccc2c(N[C@H]3CCNC3)nc(-c3cc(F)ccc3O)nc2c1 [Compound A-072, (S)-4-Fluoro-2-(7-(3-hydroxyprop-1-ynyl)-4-(pyrrolidin-3-ylamino)quinazolin-2-yl)phenol]	–	≤ 0.3 µM
COc1ccc2nc(-c3cc(F)ccc3O)nc(N[C@H]3CCNC3)c2c1 [Compound A-073, (S)-4-Fluoro-2-(6-methoxy-4-(pyrrolidin-3-ylamino)quinazolin-2-yl)phenol]	–	≤ 0.3 µM
COc1ccc2c(N[C@H]3CCNC3)nc(-c3cc(F)ccc3O)nc2c1 [Compound A-074, (S)-4-Fluoro-2-(7-methoxy-4-(pyrrolidin-3-ylamino)quinazolin-2-yl)phenol]	–	≤ 0.3 µM

Structure (SMILES)	IC50 (first set of tested compounds) [µM]	IC50 (following further studies)
COC/C=C/c1ccc2c(N[C@H]3CCNC3)nc(-c3ccccc3O)nc2c1 [Compound A-078, (S,E)-2-(7-(3-Methoxyprop-1-enyl)-4-(pyrrolidin-3-ylamino)quinazolin-2-yl)phenol]	–	≤ 0.3 µM
COCCCc1ccc2c(N[C@H]3CCNC3)nc(-c3ccccc3O)nc2c1 [Compound A-079, (S)-2-(7-(3-Methoxypropyl)-4-(pyrrolidin-3-ylamino)quinazolin-2-yl)phenol]	–	≤ 0.3 µM
COc1ccc2c(N[C@@H]3CN[C@@H](CO)C3)nc(-c3cc(F)ccc3O)nc2c1 [Compound A-087, 4-Fluoro-2-(4-((3S,5R)-5-(hydroxymethyl)pyrrolidin-3-ylamino)-7-methoxyquinazolin-2-yl)phenol]	–	≤ 0.3 µM
CC(C)(O)C#Cc1ccc2c(N[C@H]3CCNC3)nc(-c3cc(F)ccc3O)nc2c1 [Compound A-093, (S)-4-Fluoro-2-(7-(3-hydroxy-3-methylbut-1-ynyl)-4-(pyrrolidin-3-ylamino)quinazolin-2-yl)phenol]	–	≤ 0.3 µM
COCCOc1ccc2nc(-c3cc(F)ccc3O)nc(N[C@H]3CCNC3)c2c1 [Compound A-095, (S)-4-Fluoro-2-(6-(2-methoxyethoxy)-4-(pyrrolidin-3-ylamino)quinazolin-2-yl)phenol]	–	≤ 0.3 µM
CC(C)(O)CCc1ccc2c(N[C@H]3CCNC3)nc(-c3cc(F)ccc3O)nc2c1 [Compound A-097, (S)-4-Fluoro-2-(7-(3-hydroxy-3-methylbutyl)-4-(pyrrolidin-3-ylamino)quinazolin-2-yl)phenol]	–	≤ 0.3 µM
Oc1ccc(-c2ccc(F)cc2)cc1-c1nc(N[C@H]2CCNC2)c2ccccc2n1 [Compound A-100, (S)-4′-Fluoro-3-(4-(pyrrolidin-3-ylamino)quinazolin-2-yl)biphenyl-4-ol]	–	3 to 30 µM
NC(=O)c1ccc(-c2ccc(O)c(-c3nc(N[C@H]4CCNC4)c4ccccc4n3)c2)cc1 [Compound A-101, (S)-4′-Hydroxy-3′-(4-(pyrrolidin-3-ylamino)quinazolin-2-yl)biphenyl-4-carboxamide]	–	3 to 30 µM
CC(C)(O)CCc1ccc2nc(-c3cc(F)ccc3O)nc(N[C@H]3CCNC3)c2c1 [Compound A-102, (S)-4-Fluoro-2-(6-(3-hydroxy-3-methylbutyl)-4-(pyrrolidin-3-ylamino)quinazolin-2-yl)phenol]	–	≤ 0.3 µM
COCCOc1cc2c(N[C@H]3CCNC3)nc(-c3cc(F)ccc3O)nc2cc1OC [Compound A-103, (S)-4-Fluoro-2-(7-methoxy-6-(2-methoxyethoxy)-4-(pyrrolidin-3-ylamino)quinazolin-2-yl)phenol]	–	≤ 0.3 µM
COCCOc1cc2nc(-c3cc(F)ccc3O)nc(N[C@H]3CCNC3)c2cc1OCCOC [Compound A-104, (S)-2-(6,7-bis(2-Methoxyethoxy)-4-(pyrrolidin-3-ylamino)quinazolin-2-yl)-4-fluorophenol]	–	≤ 0.3 µM
Oc1ccc(-c2cccc(F)c2)cc1-c1nc(N[C@H]2CCNC2)c2ccccc2n1 [Compound A-107, (S)-3′-Fluoro-3-(4-(pyrrolidin-3-ylamino)quinazolin-2-yl)biphenyl-4-ol]	–	0.3 to 3 µM
Oc1ccc(-c2ccsc2)cc1-c1nc(N[C@H]2CCNC2)c2ccccc2n1 [Compound A-108, (S)-2-(4-(Pyrrolidin-3-ylamino)quinazolin-2-yl)-4-(thiophen-3-yl)phenol]	–	0.3 to 3 µM
CC(C)(O)C#Cc1ccc2nc(-c3cc(F)ccc3O)nc(N[C@H]3CCNC3)c2c1 [Compound A-109, (S)-4-Fluoro-2-(6-(3-hydroxy-3-methylbut-1-ynyl)-4-(pyrrolidin-3-ylamino)quinazolin-2-yl)phenol]	–	0.3 to 3 µM
Nc1nnc(-c2ccc(O)c(-c3nc(N[C@H]4CCNC4)c4ccccc4n3)c2)s1 [Compound A-110, (S)-4-(5-Amino-1,3,4-thiadiazol-2-yl)-2-(4-(pyrrolidin-3-ylamino)quinazolin-2-yl)phenol]	–	≤ 0.3 µM
Oc1ccc(F)cc1-c1nc(N[C@H]2CCNC2)c2ccc(F)cc2n1 [Compound A-114, (S)-4-Fluoro-2-(7-fluoro-4-(pyrrolidin-3-ylamino)quinazolin-2-yl)phenol]	–	≤ 0.3 µM
NC1CCC(Nc2nc(-c3ccccc3O)nc3ccccc23)CC1 (centres unmarked) [Compound B-001, 2-[4-(4-Aminocyclohexylamino)-quinazolin-2-yl]-phenol]	3 to 30	3 to 30 µM
NC1CCCC(Nc2nc(-c3ccccc3O)nc3ccccc23)C1 (centres unmarked) [Compound B-004, 2-[4-(3-Aminocyclohexylamino)-quinazolin-2-yl]-phenol]	< 3	0.3 to 3 µM
Oc1ccccc1-c1cc(N[C@H]2CCNC2)c2ccccc2n1 [Compound C-001, (S)-2-(4-(Pyrrolidin-3-ylamino)quinolin-2-yl)phenol]	3 to 30	3 to 30 µM and 4.4 µM
Oc1ccccc1-c1nccc(N[C@H]2CCNC2)n1 [Compound D-002]	3 to 30	3 to 30 µM and 8.2 µM
